According to patent publication US20230130103A1, “TARGETED PHARMACOLOGICAL THERAPEUTICS IN UVEAL MELANOMA” (Washington University, priority 2017, published 2023):
Starred links: 1 amine or outer side, 2 acyl side, 3 side chain; linkers in the order of their positions; H or OH if unused. Positions of bridges follow the written chain, without caps; N, C: chain ends. Non-standard residues stand in square brackets, D forms with d. Residues, ends and D or L forms follow the SMILES beside them. *: point of attachment. Leu(3R-OH,Nα-propionyl) = CCC(=O)N[C@H](C(=O)*)[C@H](O)C(C)C; X1 = CC(C)[C@@H](O[*:3])[C@H](N[*:1])C(=O)[*:2]; X2 = CC(C)[C@H](O[*:3])[C@@H](N[*:1])C(=O)[*:2]; NMeaThr = CN[C@H](C(=O)O)[C@H](C)O; dPhLac = O=C(O)[C@H](O)Cc1ccccc1; NMeA = CN[C@@H](C)C(=O)O; NMeDha = C=C(NC)C(=O)O

Legend:
[1] = tested on: constitutively active Gα13; test: SRE(L) promoter-driven transcriptional reporter; format: cell-based; conditions: driven by constitutively active Gα13
From the text: (§1) (FIG. 1A-1C) depicts the effect of FR on the activity state of Gα subunits as determined by interaction with Gβγ or RGS domains in split luciferase complementation assays. FIG. 1A Effect of FR on interaction of Gβγ2 with the indicated wild type (WT) or mutant constitutively active (Q/L) forms of Gα (q) or Gα13 (13). * p<0.01; ** p<0.05. FIG. 1B Potency of FR as a driver of interaction of Gβγ2 with wild type or mutant constitutively active Gαq. FIG. 1C Potency of FR as inhibitor of interaction of RGS2 with mutant constitutively active (Q/L) Gαq, or interaction of the RGS domain of LARG (LARG-RGS) with mutant constitutively active Gα13. FIG. 1D Potency of FR as inhibitor of signal transduction by constitutively active Gαq or Gα13 detected with an SRE(L) promoter-driven transcriptional reporter. Constitutively active Gαq (Q/L), constitutively active Gαq bearing the indicated FR binding site mutations, and constitutively Gα13 (Q/L) were studied.
(§2) Assays of transcriptional reporters driven by YAP or Gα subunits were performed as described (42, 43). YAP- or Ga-driven firefly luciferase activity was normalized to Renilla luciferase expressed from a constitutive promoter.

[2] = tested on: constitutively active Gαq bearing FR binding site mutations; test: SRE(L) promoter-driven transcriptional reporter; format: cell-based; conditions: read-out: IC50, inhibition of transcriptional reporter induction
From the text: as §1, §2

[3] = tested on: constitutively active Gαq; test: SRE(L) promoter-driven transcriptional reporter; format: cell-based; conditions: driven by constitutively active Gαq; FIG. 1D; read-out: IC50, inhibition of transcriptional reporter induction
From the text: as §1, §2

Gαi/q(R54K) [4] = target: T1, Gαi/q(R54K) (Homo sapiens, UniProt P63096, C351G, form not given); format: cell-based; conditions: read-out: IC50, attenuation of cannabinoid type 1 receptor inhibition of forskolin-induced cAMP accumulation; via Gαi/q(R54K); Neuro2A cells; FIG. 2C
T1 construct: […]
T1 sequence (P63096 whole entry V50I/Y69F/V72L/K180P/V185I/T187Y/H188P/C351G, form open): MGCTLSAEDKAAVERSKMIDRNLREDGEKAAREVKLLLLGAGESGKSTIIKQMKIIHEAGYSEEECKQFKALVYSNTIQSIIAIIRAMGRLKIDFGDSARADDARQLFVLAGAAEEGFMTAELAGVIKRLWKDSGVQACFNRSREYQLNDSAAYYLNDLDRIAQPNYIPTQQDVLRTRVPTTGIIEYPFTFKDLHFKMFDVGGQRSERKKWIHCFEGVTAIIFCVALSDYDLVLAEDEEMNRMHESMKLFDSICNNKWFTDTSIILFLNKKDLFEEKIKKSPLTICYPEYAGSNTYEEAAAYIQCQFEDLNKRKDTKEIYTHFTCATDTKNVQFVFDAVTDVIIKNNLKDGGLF

Gαi/q(R54K) [5] = format: cell-based; conditions: Gαi/q(R54K) vs Gαi/q
[6] = tested on: BRAF(V600E)-driven OCM-1A cells; test: IP1 accumulation in UM cells (IP-One kit); format: cell-based, Human; conditions: FIG. 3B
From the text: Inhibition of signaling by constitutively active Gαq in UM cultured cell lines was quantified by measuring intracellular inositol 1-phosphate (IP1), a metabolically stable product of inositol 1,4,5-trisphosphate produced by Gαq-stimulated phospholipase Cβ. FIG. 3A Basal IP1 levels in UM cell lines driven by constitutively active Gαq (92.1 and Mel202) and BRAF (OCM-1A). FIG. 3B Effects of FR on IP1 levels in 92.1, Mel202 and OCM-1A cells. *p<0.01.
A third UM cell line (OCM-1A) driven by constitutively active BRAF(V600E) served as a negative control. Signaling by Gαq-stimulated phospholipase Cβ was quantified based on levels of inositol monophosphate (IP1), a metabolically stable product of inositol 1,4,5-trisphosphate (IP3) produced by cleavage of phosphatidylinositol 4,5-bisphosphate (PIP2). […] FR reduced IP1 levels in Mel202 and 92.1 cells >50-fold (FIG. 3B), but had only modest effect (˜2-fold) on OCM-1A cells (FIG. 3B).
Accumulation of IP1 in UM cells was measured using the IP-One kit (CiSbio, Inc; catalog number 62IPAPEB) according to the supplier's instructions. 10,000 Mel 202 cells, 20,000 92.1 cells and 20,000 OCM 1A cells were seeded into white-bottom tissue culture grade 384-well plates. Following an overnight incubation, cells were treated with FR or DMSO and returned to the incubator. […] Plates were read in a Synergy H4 Hybred Reader (BioTek, Winooski, Vt., USA). […]

Mel202 cells [7] = test: Melanocytic re-differentiation (morphology, pigmentation, immunostaining); format: cell-based, Human
Method: (§3) FIG. 5A Morphological changes elicited by FR. UM cell lines were treated 3 d with FR and imaged by phase contrast microscopy. FR caused UM cells driven by constitutively active Gαq (92.1 and Mel202) to lose their characteristic spindle shaped and assume a stellate shape with multiple projections. FR had no effect on BRAF-driven UM cells (OCM-1A). FIG. 5B Melanocytic differentiation of FR-treated UM cells indicated by pigmentation. UM cell lines were treated 3 d with FR. Cells were pelleted and examined macroscopically. […] Scale bar=50 μm.
(§4) Cell fixation was carried out by adding an equal volume of 2×fixative (PBS with 4% paraformaldehyde and 0.4% glutaraldehyde) to UM cells in RPMI growth medium. After 15 min at 37° C., cells were permeabilized with 0.1% Triton X-100 in PBS for 5 min, washed with PBS, and blocked with 2% fish gelatin (Sigma-Aldrich) in PBS. Primary and secondary antibodies were diluted in 2% fish gelatin in PBS. Primary antibodies included mouse monoclonal anti-pre-melanosomal protein (One World Lab, San Diego, Calif.), rabbit polyclonal anti-tyrosinase (One World Lab), rabbit polyclonal anti-dopachrome tautomerase (One World Lab), rabbit polyclonal anti-S100 (DakoCytomation, Denmark), and mouse monoclonal anti-BrdU (Life Technologies). Secondary antibodies were Alexa-fluor conjugates (Life Technologies), and the mounting agent was ProLong Gold (Life Technologies). Cell morphology was assessed by phase contrast imaging with an inverted microscope (Olympus IX72) using a 10×objective.

OCM-1A cells = test: as above; format: cell-based, Human; conditions: 3 d FR, FIG. 5A
Method: as §3, §4

92.1 UM cells = test: RNA-Seq global gene expression, FR vs vehicle; format: cell-based, Human; conditions: 92.1 cells, 100 nM FR, p<0.001
Mel202 UM cells = test: UM cell viability, water-soluble tetrazolium salt assay; conditions: Homo sapiens, Mel202, read-out: EC50, inhibition of proliferation (viability)
Method: (§5) Cells were cultured at 37.0 in 5% CO2. […] Cell lines were grown in RPMI 1640 medium (Life Technologies, Carlsbad, Calif.) supplemented with 10% FBS and antibiotics. Cell viability was measured using a water-soluble tetrazolium salt, WTS-8 (Bimake, Houston, Tex.), following the manufacturer's protocol. Flow cytometry for analysis of cell proliferation and apoptosis was performed at the Siteman Cancer Center Flow Cytometry Core on a FACScan analyzer (BD Biosciences, San Diego Calif., USA) using a standard propidium iodide staining protocol as described previously (44).

Mel202 cells [8] = test: Flow cytometry of DNA content (proliferation and apoptosis); conditions: 3 d, FIG. 4C-D
Method: as §5

C=C1C(=O)N[C@@H](C)C(=O)N(C)[C@@H](C)C(=O)N[C@H]([C@@H](OC(=O)[C@@H](NC(=O)CC)[C@H](O)C(C)C)C(C)C)C(=O)N(C)[C@@H]([C@H](C)OC)C(=O)O[C@H](C(C)C)[C@H](NC(C)=O)C(=O)O[C@H](Cc2ccccc2)C(=O)N1C [FR, [(1S)-1-[(3S,6R,9S,12S,18R,21S,22R)-21-acetamido-18-benzyl-3-[(1S)-1-methoxyethyl]-4,9,10,12,16-pentamethyl-15-methylidene-2,5,8,11,14,17,20-heptaoxo-22-propan-2-yl-1,19-dioxa-4,7,10,13,16-pentazacyclodocos-6-yl]-2-methylpropyl] (2S,3R)-3-hydroxy-4-methyl-2-(propanoylamino)pentanoate] (Ac-[X1][dPhLac][NMeDha]A[NMeA][X2](Leu(3R-OH,Nα-propionyl))[NMeaThr](Me); ester 1-C)
effect on expression of the transcriptional reporter [1]: no effect | IC50 [2]: 30 to 70 nM | IC50 [3]: 1 nM | IC50 (Gαi/q(R54K) [4]): ~800 nM | fold less potent than toward Gαi/q, cAMP signaling (Gαi/q(R54K) [5]): ~30 fold | effect on IP1 levels [6]: ~2 fold | cell morphology (phase contrast) (Mel202 cells [7]; 3 d FR, FIG. 5A): morphological changes indicative of re-differentiation | melanocytic pigmentation (Mel202 cells [7]; 3 d FR, FIG. 5B): strikingly increased | expression levels of TYR, DCT and PMEL (immunofluorescence) (Mel202 cells [7]; FIG. 5C): increased | cell morphology (phase contrast) (OCM-1A cells): no effect | BBC3/PUMA expression decrease (92.1 UM cells): 3.5 fold | PMAIP1/NOXA expression decrease (92.1 UM cells): 2.5 fold | p21CIP1 (CDKN1A) expression, down (92.1 UM cells): 3.0 fold | EC50 (Mel202 UM cells): 6 nM | apoptosis (sub-G1/G0 cells) (Mel202 cells [8]): increased levels of sub-G1/G0 cells | cell cycle inhibition (decreased levels of S- and G2/M-phase cells) (Mel202 cells [8]): induced cell cycle inhibition
